US20240116947A1, “PYRIDO OXAZINE DERIVATIVES AS ALK5 INHIBITORS” (CHIESI FARMACEUTICI S.P.A., priority 2020, published 2024)

The compounds below were run against human ALK5 (Homo sapiens (Human), UniProt P36897) (assay: ADP-GLO Kinases assay, inhibition of ALK5 enzymatic activity). Details: Table 4; potency bins; purified recombinant human ALK5, ADP-Glo, 25° C.; read-out: ALK5 IC50.
Assay type: biochemical
Method: The enzymatic activity of compounds of the present invention was monitored measuring the formation of ADP using the ADP-GLO Kinases assay. Following the incubation of the purified enzyme, a substrate and ATP, the produced ADP was converted into ATP, which in turn was converted into light by Ultra-Glo Luciferase. The luminescent signal positively correlated with ADP amount and kinase activity. Briefly, the kinase reaction was performed by incubating 2.6 nM of the purified, commercially available human ALK5 (recombinant TGF β1 N-term GST-tagged, 80-end), a final concentration of TGFβ1 peptide 94.5 μM (Promega, T36-58) and ultra-pure ATP (Promega V915B). […] All reactions/incubations were performed at 25° C. Compound and ALK5 kinase were mixed and incubated for 15 mins. Reactions were initiated by addition of ATP at a final concentration in the assay of 0.83 μM. After an incubation of 150 min, the reaction was stopped, and ADP production detected with ADP-Glo kit according to manufacturer's indications. The assay was performed in 384-well format and was validated using a selection of reference compounds that was tested in 11 point concentration-response curve.

human ALK5, sequence (P36897 80-503 limits assumed): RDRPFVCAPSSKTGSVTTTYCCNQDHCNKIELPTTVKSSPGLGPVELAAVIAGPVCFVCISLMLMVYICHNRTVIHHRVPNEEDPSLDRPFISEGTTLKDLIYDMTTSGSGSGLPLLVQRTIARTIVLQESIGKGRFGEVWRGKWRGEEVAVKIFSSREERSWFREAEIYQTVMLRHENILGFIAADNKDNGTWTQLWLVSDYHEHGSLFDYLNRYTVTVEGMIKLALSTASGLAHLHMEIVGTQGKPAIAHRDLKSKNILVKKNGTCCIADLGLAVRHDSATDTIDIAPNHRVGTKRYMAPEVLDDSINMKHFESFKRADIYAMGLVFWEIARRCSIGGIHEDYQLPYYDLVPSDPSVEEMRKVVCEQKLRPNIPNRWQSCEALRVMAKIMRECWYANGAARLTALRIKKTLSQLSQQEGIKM

Row | Structure (SMILES) | IC50
1 | Fc1ccc(Cl)cc1-c1cc2c(cn1)OCCN2c1ccncc1 [Example 1, 4-[7-(5-chloro-2-fluorophenyl)-1H,2H,3H-pyrido[3,4-b][1,4]oxazin-1-yl]pyridine] | 5 to 10 nM
2 | Nc1nc(-c2cc(Cl)ccc2F)cc2c1OCCN2c1ccncc1 [Example 2, 7-(5-chloro-2-fluorophenyl)-1-(pyridin-4-yl)-1H,2H,3H-pyrido[3,4-b][1,4]oxazin-5-amine] | 5 to 10 nM
3 | Nc1cc(N2CCOc3cnc(-c4cc(Cl)ccc4F)cc32)ccn1 [Example 3, 4-[7-(5-chloro-2-fluorophenyl)-1H,2H,3H-pyrido[3,4-b][1,4]oxazin-1-yl]pyridin-2-amine] | 1 to 5 nM
4 | Nc1cc(N2CCOc3cnc(-c4cc(F)ccc4F)cc32)ccn1 [Example 4, 4-[7-(2,5-difluorophenyl)-1H,2H,3H-pyrido[3,4-b][1,4]oxazin-1-yl]pyridin-2-amine] | 5 to 10 nM
5 | Nc1cc(N2CCOc3cnc(-c4cccc(Cl)c4)cc32)ccn1 [Example 5, 4-[7-(3-chlorophenyl)-1H,2H,3H-pyrido[3,4-b][1,4]oxazin-1-yl]pyridin-2-amine] | 5 to 10 nM
6 | Nc1cc(N2CCOc3cnc(-c4nc(Cl)ccc4F)cc32)ccn1 [Example 7, 4-[7-(6-Chloro-3-fluoropyridin-2-yl)-1H,2H,3H-pyrido[3,4-b][1,4]oxazin-1-yl]pyridin-2-amine] | 5 to 10 nM
7 | Cc1ccc(F)c(-c2cc3c(cn2)OCCN3c2ccnc(N)c2)c1 [Example 11, 4-[7-(2-fluoro-5-methylphenyl)-1H,2H,3H-pyrido[3,4-b][1,4]oxazin-1-yl]pyridin-2-amine] | 5 to 10 nM
8 | Nc1cc(N2CCOc3cnc(-c4cc(C5CC5)ccc4F)cc32)ccn1 [Example 12, 4-[7-(5-cyclopropyl-2-fluorophenyl)-1H,2H,3H-pyrido[3,4-b][1,4]oxazin-1-yl]pyridin-2-amine] | 1 to 5 nM
9 | CC(C)c1ccc(F)c(-c2cc3c(cn2)OCCN3c2ccnc(N)c2)c1 [Example 13, 4-{7-[2-fluoro-5-(propan-2-yl)phenyl]-1H,2H,3H-pyrido[3,4-b][1,4]oxazin-1-yl}pyridin-2-amine] | 1 to 5 nM
10 | Fc1ccc(Cl)cc1-c1cc2c(cn1)OCCN2c1ccnc2[nH]ncc12 [Example 15, 7-(5-chloro-2-fluorophenyl)-1-{1H-pyrazolo[3,4-b]pyridin-4-yl}-1H,2H,3H-pyrido[3,4-b][1,4]oxazine] | 1 to 5 nM
11 | Fc1ccc(Cl)cc1-c1cc2c(cn1)OCCN2c1ccnc2[nH]cnc12 [Example 17, 7-(5-chloro-2-fluorophenyl)-1-{3H-imidazo[4,5-b]pyridin-7-yl}-1H,2H,3H-pyrido[3,4-b][1,4]oxazine] | 5 to 10 nM
12 | COC(=O)CN(C)CCC(=O)Nc1cc(N2CCOc3cnc(-c4cc(Cl)ccc4F)cc32)ccn1 [Example 23, methyl 2-{[2-({4-[7-(5-chloro-2-fluorophenyl)-1H,2H,3H-pyrido[3,4-b][1,4]oxazin-1-yl]pyridin-2-yl}carbamoyl)ethyl](methyl)amino} acetate] | < 1 nM
13 | CS(=O)(=O)NCCC(=O)Nc1cc(N2CCOc3cnc(-c4cc(Cl)ccc4F)cc32)ccn1 [Example 24, N-{4-[7-(5-chloro-2-fluorophenyl)-1H,2H,3H-pyrido[3,4-b][1,4]oxazin-1-yl]pyridin-2-yl}-3-methanesulfonamidopropanamide] | < 1 nM
14 | CN1CCN(CCC(=O)Nc2cc(N3CCOc4cnc(-c5cc(Cl)ccc5F)cc43)ccn2)C(=O)C1 [Example 25, N-{4-[7-(5-chloro-2-fluorophenyl)-1H,2H,3H-pyrido[3,4-b][1,4]oxazin-1-yl]pyridin-2-yl}-3-(4-methyl-2-oxopiperazin-1-yl)propanamide] | < 1 nM
15 | CS(=O)(=O)CCNCCC(=O)Nc1cc(N2CCOc3cnc(-c4cc(Cl)ccc4F)cc32)ccn1 [Example 26, N-{4-[7-(5-chloro-2-fluorophenyl)-1H,2H,3H-pyrido[3,4-b][1,4]oxazin-1-yl]pyridin-2-yl}-3-[(2-methanesulfonylethyl)amino] propanamide] | < 1 nM
16 | CN(CCC(=O)Nc1cc(N2CCOc3cnc(-c4cc(Cl)ccc4F)cc32)ccn1)CCS(C)(=O)=O [Example 27, N-{4-[7-(5-chloro-2-fluorophenyl)-1H,2H,3H-pyrido[3,4-b][1,4]oxazin-1-yl]pyridin-2-yl}-3-[(2-methanesulfonylethyl)(methyl)amino]propanamide] | 1 to 5 nM
17 | O=C(CCN1CCN(CCO)CC1)Nc1cc(N2CCOc3cnc(-c4cc(Cl)ccc4F)cc32)ccn1 [Example 28, N-{4-[7-(5-chloro-2-fluorophenyl)-1H,2H,3H-pyrido[3,4-b][1,4]oxazin-1-yl]pyridin-2-yl}-3-[4-(2-hydroxyethyl)piperazin-1-yl]propanamide] | < 1 nM

The next lines start with the values.

Row | IC50 | Structure (SMILES)
18 | < 1 nM | O=C(CCN1CCOCC1)Nc1cc(N2CCOc3cnc(-c4cc(Cl)ccc4F)cc32)ccn1 [Example 8, N-{4-[7-(5-chloro-2-fluorophenyl)-1H,2H,3H-pyrido[3,4-b][1,4]oxazin-1-yl]pyridin-2-yl}-3-(morpholin-4-yl)propanamide]
19 | < 1 nM | CN(C)CCC(=O)Nc1cc(N2CCOc3cnc(-c4cc(Cl)ccc4F)cc32)ccn1 [Example 9, N-{4-[7-(5-chloro-2-fluorophenyl)-1H,2H,3H-pyrido[3,4-b][1,4]oxazin-1-yl]pyridin-2-yl}-3-(dimethylamino)propanamide]
20 | < 1 nM | O=C(CCN1CCNCC1)Nc1cc(N2CCOc3cnc(-c4cc(Cl)ccc4F)cc32)ccn1 [Example 10, N-{4-[7-(5-chloro-2-fluorophenyl)-1H,2H,3H-pyrido[3,4-b][1,4]oxazin-1-yl]pyridin-2-yl}-3-(piperazin-1-yl)propanamide]
21 | < 1 nM | CN1CCN(CCC(=O)Nc2cc(N3CCOc4cnc(-c5cc(Cl)ccc5F)cc43)ccn2)CC1 [Example 14, N-{4-[7-(5-chloro-2-fluorophenyl)-1H,2H,3H-pyrido[3,4-b][1,4]oxazin-1-yl]pyridin-2-yl}-3-(4-methylpiperazin-1-yl)propanamide]
22 | < 1 nM | O=C(CCN(CCO)CCO)Nc1cc(N2CCOc3cnc(-c4cc(Cl)ccc4F)cc32)ccn1 [Example 18, 3-[bis(2-hydroxyethyl)amino]-N-{4-[7-(5-chloro-2-fluorophenyl)-1H,2H,3H-pyrido[3,4-b][1,4]oxazin-1-yl]pyridin-2-yl}propanamide]
23 | < 1 nM | CN(CCC(=O)Nc1cc(N2CCOc3cnc(-c4cc(Cl)ccc4F)cc32)ccn1)C1COC1 [Example 19, N-{4-[7-(5-chloro-2-fluorophenyl)-1H,2H,3H-pyrido[3,4-b][1,4]oxazin-1-yl]pyridin-2-yl}-3-[methyl(oxetan-3-yl)amino]propanamide]
24 | < 1 nM | CN(CCO)CCC(=O)Nc1cc(N2CCOc3cnc(-c4cc(Cl)ccc4F)cc32)ccn1 [Example 20, N-{4-[7-(5-chloro-2-fluorophenyl)-1H,2H,3H-pyrido[3,4-b][1,4]oxazin-1-yl]pyridin-2-yl}-3-[(2-hydroxyethyl)(methyl)amino] propanamide]
25 | < 1 nM | CN1CCN(CCC(=O)Nc2cc(N3CCOc4cnc(-c5cc(Cl)ccc5F)cc43)ccn2)CC1=O [Example 22, N-{4-[7-(5-chloro-2-fluorophenyl)-1H,2H,3H-pyrido[3,4-b][1,4]oxazin-1-yl]pyridin-2-yl}-3-(4-methyl-3-oxopiperazin-1-yl)propanamide]
